Patent EP0545103A1, “Insecticidal, acaricidal and molluscicidal 1-(substituted) thioalkylpyrroles” (priority 1991, dated 1993)

Columns and labels:
Format in all cases: in vivo
[1] = tested on: Diabrotic undecimpunctata howardi, 3rd instar southern corn rootworm; experiment: Southern corn rootworm soil test; design: key: 0: no effect; 10-25% kill; 26-35% kill; 36-45% kill; 46-55% kill; 56-65% kill; 66-75% kill; 76-85% kill; 86-99% kill; 9: 100% kill; settings: mortality rating after 6 days
Protocol: Diabrotic undecimpunctata howardi, 3rd instar southern corn rootworm
One cc of fine talc is placed in a 30 mL wide-mouth screw-top glass jar. One mL of the appropriate acetone test solution is pipetted onto the talc so as to provide 1.25 and 0.25 mg of active ingredient per jar. The jars are set under a gentle air flow until the acetone is evaporated. The dried talc is loosened, 1 cc of millet seed is added to serve as food for the insects and 25 mL of moist soil is added to each jar. The jar is capped and the contents thoroughly mixed on a Vortex Mixer. Following this, ten 3rd instar rootworms are added to each jar and the jars are loosely capped to allow air exchange for the larvae. The treatments are held for 6 days when mortality counts are made. Missing larvae are presumed dead, since they decompose rapidly and can not be found. The concentrations used in this test correspond approximately to 50 and 10 kg/ha, respectively.
(§1) All of the above tests are rated according to the rating scale shown below.

[2] = tested on: Tetranychus urticae (OP-resistant strain), 2-spotted spider mite; experiment: 2-spotted spider mite test, dipped infested limabean plants; design: key: 0: no effect; 10-25% kill; 26-35% kill; 36-45% kill; 46-55% kill; 56-65% kill; 66-75% kill; 76-85% kill; 86-99% kill; 9: 100% kill
Protocol: (§2) Test solutions are prepared by dissolving the test compound in a 35% acetone in water mixture to give a concentration of 10,000 ppm. Subsequent dilutions are made with water as needed.
Tetranychus urticae (OP-resistant strain), 2-spotted spider mite
Sieva limabean plants with primary leaves expanded to 7-8 cm are selected and cut back to one plant per pot. A small piece is cut from an infested leaf taken from the main colony and placed on each leaf of the test plants. This is done about 2 hours before treatment to allow the mites to move over to the test plant and to lay eggs. The size of the cut, infested leaf is varied to obtain about 100 mites per leaf. At the time of test treatment, the piece of leaf used to transfer the mites is removed and discarded. The newly mite-infested plants are dipped in the test solution for 3 seconds with agitation and set in the hood to dry. After 2 days one leaf is removed and mortality counts are made. After 5 days, another leaf is removed and observations are made of mortality of the eggs and/or newly emerged nymphs.
as §1

[3] = tested on: Empoasca abrupta, adult, western potato leafhopper; experiment: Western potato leafhopper systemic uptake test; design: key: 0: no effect; 10-25% kill; 26-35% kill; 36-45% kill; 46-55% kill; 56-65% kill; 66-75% kill; 76-85% kill; 86-99% kill; 9: 100% kill; settings: 100 ppm; systemic uptake; rating scale 0-9
Protocol: Empoasca abrupta, adult, western potato leafhopper Systemic Uptake
An emulsion containing 0.1 gm of the test material, 0.2 gm of Emulphor EL-620® emulsifier, 10 mL of acetone and 90 mL of water is prepared and diluted 10-fold with water to give a 100 ppm emulsion. Subsequent 10-fold dilutions are made with water as needed. Sieva limabean plants, with the primary leaves expanded to a length of 7-8 cm, are cut off at least 3 cm above the soil level to avoid contamination with soil bacteria which will cause decay of the stem during the test. The cut stem is placed in the test emulsion and wrapped with a bit of cotton to hold the stem off the bottom of the bottle and to limit evaporation. The treated stem is maintained for 3 days at 27°C to allow the test compound to be taken up into the plant. Following this, one leaf is removed from the plant and placed in a 100 x 10 mm petri dish containing a moist filter paper and about 10 adult leafhoppers as described above. Mortality counts are made after 2 days.
as §1

[4] = tested on: Heliothis virescens, egg, tobacco budworm; experiment: Tobacco budworm egg test, dipped cotton leaf and eggs; design: key: 0: no effect; 10-25% kill; 26-35% kill; 36-45% kill; 46-55% kill; 56-65% kill; 66-75% kill; 76-85% kill; 86-99% kill; 9: 100% kill; settings: mortality rating after 3 days
Protocol: as §2
Heliothis virescens, egg, tobacco budworm
A young cotton leaf about 6-7cm in length is dipped in an agitated test suspension for about 3 seconds. Eggs are collected on a cheesecloth and the cloth is cut into 10-20mm squares, each containing approximately 50-100 eggs which are 6-30 hours old. The egg-containing cheesecloth square is similarly dipped in a test suspension and placed on a treated cotton leaf. The combination is dried in a hood and then placed in an 8 ounce Dixie® cup #2168-ST (240ml volume, 6cm tall, 9.5cm top diameter, 8.0cm bottom diameter) into which a 5cm length of damp dental wick has been placed. The cup is covered with a clear plastic lid and held for 3 days, after which mortality counts are made.
as §1

[5] = tested on: Spodoptera eridania, 3rd instar larvae, southern armyworm; experiment: Southern armyworm 7-day residual test; settings: R designates Residual: 7-day residual foliage, concentration not given; for ARMYWORM Day 3 R: rating at 3 days; for ARMYWORM Day 5 R: rating at 5 days
Protocol: as §2
Spodoptera eridania, 3rd instar larvae, southern armyworm, 7-day residual
The limabean leaves treated in the above test are maintained under high intensity lamps in the greenhouse for 7 days. These lamps duplicate the effects of a bright sunny day in June in New Jersey and are kept on for 14 hour day length. After 7 days, the foliage is sampled and assayed as in the above-said test.
as §1

[6] = tested on: Spodoptera eridania, 3rd instar larvae, southern armyworm; experiment: Southern armyworm 3rd instar test, dipped limabean leaf; design: key: 0: no effect; 10-25% kill; 26-35% kill; 36-45% kill; 46-55% kill; 56-65% kill; 66-75% kill; 76-85% kill; 86-99% kill; 9: 100% kill; settings: for ARMYWORM Day 3: rating at 3 days; for ARMYWORM Day 5: rating at 5 days
Protocol: as §2
Spodoptera eridania, 3rd instar larvae, southern armyworm
A Sieva limabean leaf expanded to 7-8 cm in length is dipped in the test solution with agitation for 3 seconds and allowed to dry in a hood. The leaf is then placed in a 100 x 10 mm petri dish containing a damp filterpaper on the bottom and ten 3rd instar caterpillars. At 3 and 5 days, observations are made of mortality, reduced feeding, or any interference with normal molting.
as §1

[7] = tested on: Spodoptera eridania, 3rd instar larvae, southern armyworm; experiment: Southern armyworm systemic uptake (stem systemic) test; design: key: 0: no effect; 10-25% kill; 26-35% kill; 36-45% kill; 46-55% kill; 56-65% kill; 66-75% kill; 76-85% kill; 86-99% kill; 9: 100% kill; settings: cut stem in emulsion 3 days
From the text: Spodoptera eridania, systemic uptake, 3rd instar larvae, southern armyworm
Subsequent 10-fold dilutions are made with water as needed. Sieva limabean plants, with the primary leaves expanded to a length of 7-8 cm, are cut off at least 3 cm above the soil level to avoid contamination with soil bacteria which will cause decay of the stem during the test. The cut stem is placed in the test emulsion and wrapped with a bit of cotton to hold the stem off the bottom of the bottle and to limit evaporation. The treated stem is thus maintained for 3 days at 27° C to allow the test compound to be taken up into the plant. Following this, one leaf is removed from the plant and placed in a 100 x 10 mm petri dish with 10 southern armyworms as described above. Mortality counts and observations of feeding damage are made 3 and 5 days later.
as §1

[8] = tested on: Aphis fabae, mixed instar, bean aphid; experiment: Bean aphid spray test on nasturtium; design: key: 0: no effect; 10-25% kill; 26-35% kill; 36-45% kill; 46-55% kill; 56-65% kill; 66-75% kill; 76-85% kill; 86-99% kill; 9: 100% kill; settings: 100 ppm
Protocol: as §2
Aphis fabae, mixed instar, bean aphid
Pots containing single nasturtium plants (Tropaeolum sp.) about 5 cm tall are infested with about 100-200 aphids one day prior to treatment. Each pot is sprayed with the test solution for 2 revolutions of a 4 rpm turntable in a hood, using a #154 DeVilbiss atomizer. The spray tip is held about 15 cm from the plant and the spray directed so as to give complete coverage of the plants and the aphids. The sprayed pots are set on their sides on white enamel trays and mortality estimates are made after 2 days.
as §1

[9] = tested on: Empoasca abrupta, adult, western potato leafhopper; experiment: Western potato leafhopper contact test, dipped limabean leaf; design: key: 0: no effect; 10-25% kill; 26-35% kill; 36-45% kill; 46-55% kill; 56-65% kill; 66-75% kill; 76-85% kill; 86-99% kill; 9: 100% kill; settings: mortality rating after 2 days
Protocol: as §2
Empoasca abrupta, adult, western potato leafhopper
A Sieva limabean leaf about 5 cm long is dipped in the test solution for 3 seconds with agitation and placed in a hood to dry. The treated leaf is placed in a 100 x 10 mm petri dish containing a moist filter paper and about 10 adult leafhoppers are added. After 2 days, mortality counts are made.
as §1

[10] = 300 ppm, adult mites, rating scale 0-9
[11] = 300 ppm, mite eggs, rating scale 0-9
[12] = 300 ppm, mite nymphs, rating scale 0-9

Structure (SMILES)	SOUTHERN CORN ROOTWORM ([1]; 50 (ppm as headed))	OP-RESISTANT MITES Adult [2, 10]	OP-RESISTANT MITES Egg [2, 11]	OP-RESISTANT MITES Nymph [2, 12]	LEAFHOPPER Systemic [3]	TOBACCO BUDWORM Egg ([4]; 100 ppm)	TOBACCO BUDWORM Egg ([4]; 1000 ppm)	ARMYWORM Day 3 R [5]	ARMYWORM Day 5 R [5]	ARMYWORM Day 3 ([6]; 10 ppm)	ARMYWORM Day 5 ([6]; 10 ppm)	ARMYWORM Day 3 ([6]; 100 ppm)	ARMYWORM Day 5 ([6]; 100 ppm)	ARMYWORM Day 3 ([6]; 1000 ppm)	ARMYWORM Day 5 ([6]; 1000 ppm)	ARMYWORM Stem Sys [7]	APHIDS ([8]; rating scale 0-9)	further results
N#Cc1c(Br)c(C(F)(F)F)n(CSc2ncc[nH]2)c1-c1ccc(Cl)cc1 [Example 1]	0	0	0	0	0	0	0	9 (100% kill)	9 (100% kill)	9 (100% kill)	9 (100% kill)	9 (100% kill)	9 (100% kill)	9 (100% kill)	9 (100% kill)	0	0	
N#Cc1c(Br)c(C(F)(F)F)n(CSC2=NCCCN2)c1-c1ccc(Cl)cc1 [Example 8]	0					0	0	9 (100% kill)	9 (100% kill)	0		9 (100% kill)		9 (100% kill)		9 (100% kill)		OP-RESISTANT MITES Adult ([2]; 10 ppm, mortality rating after 2 days): 0; OP-RESISTANT MITES Nymph ([2]; 10 ppm, rating after 5 days): 0; OP-RESISTANT MITES Adult ([2]; 100 ppm, mortality rating after 2 days): 9 (100% kill); OP-RESISTANT MITES Nymph ([2]; 100 ppm, rating after 5 days): 8 (86-99% kill); OP-RESISTANT MITES Adult ([2]; 300 ppm, mortality rating after 2 days): 9 (100% kill); OP-RESISTANT MITES Egg ([2]; 300 ppm, rating after 5 days): 0; OP-RESISTANT MITES Nymph ([2]; 300 ppm, rating after 5 days): 0; LEAFHOPPER Contact ([9]; 10 ppm): 0; LEAFHOPPER Contact ([9]; 100 ppm): 8 (86-99% kill); APHIDS ([8]; spray, mortality rating after 2 days): 0
CCN=C(NCC)SCn1c(-c2ccc(Cl)cc2)c(C#N)c(Br)c1C(F)(F)F [Example 12]		0	0	0			0	9 (100% kill)	9 (100% kill)	9 (100% kill)	9 (100% kill)	9 (100% kill)	9 (100% kill)	9 (100% kill)	9 (100% kill)	0	0	SOUTHERN CORN ROOTWORM ([1]; 1 (ppm as headed)): 0
N#Cc1c(Br)c(C(F)(F)F)n(CSC2=NCCCCN2)c1-c1ccc(Cl)cc1 [Example 11]	0	0	0	0	9 (100% kill)	3 (36-45% kill)	5 (56-65% kill)	9 (100% kill)	9 (100% kill)	9 (100% kill)	9 (100% kill)	9 (100% kill)	9 (100% kill)	9 (100% kill)	9 (100% kill)	9 (100% kill)	0	
